The values that follow come from patent US11286268B1, “EIF4E-inhibiting compounds and methods” (EFFECTOR THERAPEUTICS, INC., priority 2019, dated 2022).

In this assay the target is recombinant eIF4E (Homo sapiens (Human), UniProt P06730). Kind of assay: Fluorescence polarization competition assay for eIF4E binding potency. Summed up: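 IC50 values reflect 50% displacement of 20 nM EDA-m7GDP-ATTO-550 from 75 nM eIF4E, measured by fluorescence polarization after 30 min at room temperature. Buffer: 20 mM Tris pH 7.5, 100 mM NaCl, 1 mM DTT, 0.02% Tween-20; 1% DMSO.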
recombinant eIF4E, sequence (P06730 whole entry): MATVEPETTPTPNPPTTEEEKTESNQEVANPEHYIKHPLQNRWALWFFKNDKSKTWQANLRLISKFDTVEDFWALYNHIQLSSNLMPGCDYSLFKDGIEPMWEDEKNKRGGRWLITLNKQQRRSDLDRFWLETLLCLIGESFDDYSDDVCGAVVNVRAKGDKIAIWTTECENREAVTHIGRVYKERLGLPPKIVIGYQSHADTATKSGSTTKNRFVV
(In general: Fluorescence polarisation rises when a labelled molecule tumbles more slowly, as on binding a larger partner.)

The mark [1] stands for this setting: fluorescence polarization competition, 75 nM recombinant eIF4E, 20 nM EDA-m7GDP-ATTO-550, IC50 class, read-out: elF4E FP.
Setting [2] is: inhibition of eIF4E/EDA-m7GDP-ATTO-550 binding by 50%, Table 4B calculated values, read-out: IC50.
[3] abbreviates: inhibition of eIF4E/EDA-m7GDP-ATTO-550 binding, calculated IC50 values, Table 4B, read-out: IC50.

Read-outs that look alike come from different tables or passages of the source.

Take `Cc1cc(-c2cc(Cl)ccc2OCCn2c(C)nc3cc(C(F)(F)F)c(N4CCC(Cl)CC4)c(C#N)c3c2=O)c2scc(C(=O)O)c2n1` [compound 991]: the IC50 was less than 0.05 µM under setting [1] and 0.0121 µM under setting [2].
For `Cc1cc(C(=O)O)c(C#N)c(-c2cc(Cl)ccc2OCCn2cnc3cnc(C#N)cc3c2=O)n1` [compound 116] the same measures were more than 1 µM and more than 3 µM.
For `Cc1cc(-c2cc(Cl)ccc2OCCn2c(C)nc3cc(C(F)(F)F)c(CN4CCN(C(C)(C)C)CC4)c(C#N)c3c2=O)c2scc(C(=O)O)c2n1` [compound 738] the same measures were less than 0.05 µM and 0.0193 µM.
For `Cc1nc2cc(C(F)(F)F)cc(C#N)c2c(=O)n1CCOc1cnc(C#N)cc1-c1ccnc2c(C(=O)O)csc12` [compound 291] the same measures were 0.05 to 1 µM and 0.0995 µM.
For `Cc1cc(-c2cc(Cl)ccc2OCCn2c(C)nc3cc(C(F)(F)F)c(-c4cnc(C)c(C)n4)c(C#N)c3c2=O)c2scc(C(=O)O)c2n1` [compound 969], the IC50 by setting is: under setting [1], less than 0.05 µM; under setting [2], 0.00556 µM.
For `O=C(O)c1cccc(-c2cc(Cl)ccc2OCCn2cnc3ncncc3c2=O)c1` [compound 17] the same measures were 0.05 to 1 µM and 0.721 µM.
With `Cc1nc2cnc(N(C)C3CCN([C@H]4C[C@H](OC(F)F)C4)CC3)c(C#N)c2c(=O)n1CC#Cc1ccc(Cl)cc1-c1ccnc2c(C(=O)NS(=O)(=O)c3ccccn3)csc12` [compound 1763], under setting [3], the IC50 is 0.0233 µM.
For `Cc1nc2cc(OC(F)F)c(C(F)(F)F)c(C#N)c2c(=O)n1CCOc1ccc(Cl)cc1-c1ccnc2c(C(=O)O)csc12` [compound 540], the IC50 is less than 0.05 µM under setting [1] and 0.014 µM under setting [2].
For `Cc1nc2cnc(N(C)C3CCN(CC4(C(F)(F)F)CC4)CC3)c(C#N)c2c(=O)n1CC#Cc1ccc(Cl)cc1-c1ccnc2c(C(=O)O)csc12` [compound 1587], the IC50 under setting [3] is 0.0397 µM.
As to `Cc1cc(-c2cc(Cl)ccc2OCCn2c(C)nc3cc(C(F)(F)F)c(-c4ccncc4)c(C#N)c3c2=O)c2scc(C(=O)O)c2n1` [compound 629], the IC50 under setting [1] is less than 0.05 µM and the IC50 under setting [2] was 0.00639 µM.
For `Cc1cc(-c2cc(Cl)ccc2OCCn2c(C)nc3cc(C(F)F)c(N4CC(F)(F)C4)c(C#N)c3c2=O)c2scc(C(=O)O)c2n1` [compound 799] the same measures were less than 0.05 µM and 0.00935 µM.
As to `CCN(c1ncc2nc(C)n(CC#Cc3ccc(Cl)cc3-c3ccnc4c(C(=O)NS(=O)(=O)c5ccccn5)csc34)c(=O)c2c1C#N)C1CCN(C2CC(F)(F)C2)CC1` [compound 1840], the IC50 under setting [3] is 0.0264 µM.
Consider `Cc1nc2c(F)cc(C(F)F)c(C#N)c2c(=O)n1CC#Cc1ccc(Cl)cc1-c1ccnc2c(C(=O)O)csc12` [compound 557], for which the IC50 was less than 0.05 µM under setting [1] and 0.0064 µM under setting [2].
For `Cc1nc(N2CCN(CC(F)(F)F)CC2)c(C#N)c2c(=O)n(CCOc3ccc(Cl)cc3-c3ccnc4c(C(=O)O)csc34)c(C)nc12` [compound 886] the same measures were less than 0.05 µM and 0.0105 µM.
For `Cc1c(CN(C)C)c(C(F)(F)F)cc2nc(C)n(CCOc3ccc(Cl)cc3-c3ccnc4c(C(=O)O)csc34)c(=O)c12` [compound 620] the same measures were less than 0.05 µM and 0.0369 µM.
In the case of `Cc1nc2cnc(N(C)C3CCN(C4(CF)CC4)CC3)c(C#N)c2c(=O)n1CC#Cc1ccc(Cl)cc1-c1ccnc2c(C(=O)O)csc12` [compound 1529], under setting [3], the IC50 was 0.0201 µM.
As to `CCN(c1ncc2nc(C)n(CC#Cc3ccc(Cl)cc3-c3ccnc4c(C(=O)NS(=O)(=O)Cc5ccccn5)csc34)c(=O)c2c1C#N)C1CCN(C2COC2)CC1` [compound 1738], the IC50 under setting [3] is 0.0255 µM.
With `Cc1cc(-c2cc(Cl)ccc2OCCn2c(C)nc3cc(N(C)C)c(-c4ccccc4)c(C#N)c3c2=O)c2scc(C(=O)O)c2n1` [compound 1040], the IC50 is, setting by setting: under setting [1], less than 0.05 µM; under setting [2], 0.03 µM.
For `Cc1nc2cnc(N3CC4(CC(N(C)C5CC5)C4)C3)c(C#N)c2c(=O)n1CCOc1ccc(Cl)cc1-c1ccnc2c(C(=O)O)csc12` [compound 829] the same measures were less than 0.05 µM and 0.00453 µM.
For `N#Cc1cccc2c1c(=O)n(CCOc1ccc(Cl)cc1-c1ccnc3c(C(=O)O)csc13)c1ccccc21` [compound 657] the same measures were less than 0.05 µM and 0.0457 µM.
With `Cc1nc2cnc(N(C)[C@@H]3C[C@@H]4CN(CC(F)F)C[C@@H]4C3)c(C#N)c2c(=O)n1CC#Cc1ccc(Cl)cc1-c1ccnc2c(C(=O)O)csc12` [compound 1531], the IC50 under setting [3] was 0.0134 µM.
With `Cc1c(C(F)(F)F)cc2nc(C)n(CCOc3ccc(Cl)cc3-c3cn(C)c(=O)c4c(C(=O)O)csc34)c(=O)c2c1C#N` [compound 753], the IC50 runs as follows: under setting [1], less than 0.05 µM; under setting [2], 0.0138 µM.
For `N#Cc1cc2c(=O)n(CCOc3ccc(Cl)cc3-c3ccnc4c(C(=O)O)csc34)cnc2cn1` [compound 30] the same measures were 0.05 to 1 µM and 0.164 µM.
For `Cc1nc2cc(C(F)(F)F)c(N3CCN(C)CC3)c(C#N)c2c(=O)n1CC#Cc1ccc(Cl)cc1-c1cccc(C(=O)O)c1` [compound 1154], the IC50 is, setting by setting: under setting [1], less than 0.05 µM; under setting [2], 0.014 µM.
For `Cc1cc(-c2cc(Cl)ccc2OCCn2c(C)nc3cc(C(F)(F)F)c(N4CC(=O)C4)nc3c2=O)c2scc(C(=O)O)c2n1` [compound 796] the same measures were less than 0.05 µM and 0.00327 µM.
For `Cc1cc(-c2cc(Cl)ccc2OCCn2c(C)nc3cnc(C#N)cc3c2=O)c2scc(C(=O)O)c2n1` [compound 596] the same measures were less than 0.05 µM and 0.0377 µM.
For `N#Cc1cc2c(=O)n(CCOc3ccc(Cl)cc3-c3cccc(-c4nn[nH]n4)c3)cnc2cn1` [compound 128] the same measures were 0.05 to 1 µM and 0.97 µM.
On to `C=Cc1c(C(=O)O)cccc1-c1cc(Cl)ccc1OCCn1c(C)nc2cc(C(F)(F)F)cc(C#N)c2c1=O` [compound 169], for which the IC50 under setting [1] fell in the range of 0.05 to 1 µM and the IC50 under setting [2] is 0.234 µM.
For `Cc1cc(-c2cc(Cl)ccc2OCCn2c(C)nc3cnc(N4CC(O)C4)c(C#N)c3c2=O)c2scc(C(=O)O)c2n1` [compound 1011] the same measures were less than 0.05 µM and 0.00715 µM.
As for `Cc1nc2cc(C(F)(F)F)cc(C#N)c2c(=O)n1CCOc1ccc(Cl)cc1-c1cc(CN(C)C)nc2c(C(=O)O)csc12` [compound 636], the IC50 is less than 0.05 µM under setting [1] and 0.0332 µM under setting [2].
Regarding `CCN(CC)Cc1c(C(F)(F)F)cc2nc(C)n(CCOc3ccc(Cl)cc3-c3ccnc4c(C(=O)O)csc34)c(=O)c2c1C#N` [compound 527], the IC50 is less than 0.05 µM under setting [1] and 0.0248 µM under setting [2].
For `CCc1cc(-c2cc(Cl)ccc2OCCn2c(C)nc3cnc(CC)c(C#N)c3c2=O)c2scc(C(=O)O)c2n1` [compound 1062] the same measures were less than 0.05 µM and 0.00663 µM.
For `Cc1nc2cnc(O)c(C#N)c2c(=O)n1CC#Cc1ccc(Cl)cc1-c1ccnc2c(C(=O)O)csc12` [compound 891] the same measures were less than 0.05 µM and 0.0137 µM.
As for `Cc1cc(-c2cc(Cl)ccc2OCCn2c(C)nc3cc(Cl)c(N4CCN(C(C)(C)C)CC4)c(C#N)c3c2=O)c2sc(C)c(C(=O)O)c2n1` [compound 1201], the IC50 was less than 0.05 µM under setting [1] and 0.0228 µM under setting [3].
For the compound `Cc1cc(-c2cc(Cl)ccc2OCCn2c(C)nc3cc(C(F)(F)F)cc(O)c3c2=O)c2scc(C(=O)O)c2n1` [351a], under setting [2], the IC50 is 0.885 µM.
